Consider 18 molecules from patent US20050107432A1, “Sigma receptor binder containing indanone derivative” (priority 2002, published 2005).

For test [1], the system named is sigma receptor. The note with it: disclosed in J. Med. Chem. 37, 364 (1994), Neuroscience Lett. 260, 5 (1999), JP-A 11-349481; cited from earlier work.
Test [2] addresses Sigma receptor. Briefly: Sigma receptor binding assay (3H-DTG, guinea pig brain crude membrane fraction). The note with it: for IC50: inhibition of 3H-DTG binding to guinea pig brain crude membrane fraction, 25° C., 1 hour; for sigma receptor binding action: result in words, no value given. As for the experimental part: Sigma Receptor Binding Assay
(1) Preparation of Receptor
Ten male guinea pigs (Crj, Hartley, from Charles River Japan, Inc.) (body weight: 234 g to 260 g) were decapitated, exsanguinated and died. The brain was immediately removed, homogenized with ten volumes of 50 mM Tris-HCl (pH 7.4) using a Teflon homogenizer and was centrifuged at a rate of 50000× g at 4° C. for 20 minutes. The washing procedure was repeated once more under the same conditions, and the resulting crude membrane fraction was subjected to the assay.
The filter paper was transferred to a vial for radioactivity measurement, mixed with 5 mL of a liquid scintillation cocktail (Atomlight, from PACKARD), and the radioactivity on the filter was determined by a liquid scintillation counter (Model 1500, from PACKARD) for 2 minutes. The specific binding and the non-specific binding in the absence of the test compound were determined in the same way as above except for using 50% DMSO solution instead of the test compound and using a 100 μM Haloperidol solution instead of the test compound, respectively.
(3) Determination of Inhibition
The inhibitions of the test compound at individual concentrations were determined from the ratio of the specific binding in the presence of the test compound to the specific binding in the absence thereof. The dose-response curve was regressed according to a logit-log model in which the ratio of the specific binding in the presence of the test compound to the specific binding in the absence thereof was subjected to logit transformation and plotted against the common logarithm value of each concentration.

Test [3] has as its target T1, acetylcholinesterase (Rattus norvegicus, UniProt P37136).
T1 construct: from tissue; host or cells: rat brain homogenate
T1 sequence (P37136 32-614): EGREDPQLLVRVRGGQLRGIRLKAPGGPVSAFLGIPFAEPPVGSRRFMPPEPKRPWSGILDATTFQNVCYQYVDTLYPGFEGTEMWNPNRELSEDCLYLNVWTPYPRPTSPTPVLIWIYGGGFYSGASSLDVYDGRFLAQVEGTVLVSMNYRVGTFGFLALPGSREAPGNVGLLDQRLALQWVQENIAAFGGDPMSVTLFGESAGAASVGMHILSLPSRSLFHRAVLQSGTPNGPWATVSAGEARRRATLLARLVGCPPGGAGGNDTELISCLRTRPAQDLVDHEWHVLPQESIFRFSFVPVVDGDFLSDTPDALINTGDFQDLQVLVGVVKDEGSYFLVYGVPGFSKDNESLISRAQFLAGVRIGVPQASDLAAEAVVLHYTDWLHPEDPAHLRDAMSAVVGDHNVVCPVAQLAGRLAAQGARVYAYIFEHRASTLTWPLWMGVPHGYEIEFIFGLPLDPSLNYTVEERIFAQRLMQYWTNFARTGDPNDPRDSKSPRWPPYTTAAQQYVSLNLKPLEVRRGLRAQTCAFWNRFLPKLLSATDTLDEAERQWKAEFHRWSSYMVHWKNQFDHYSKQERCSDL
Briefly: Inhibitory effect on acetylcholinesterase (Ellman method, rat brain homogenate). In kind it is biochemical. The following applies: rat brain homogenate as source of acetylcholinesterase; read-out: Acetylcholinesterase inhibition IC50. The procedure:
Inhibitory Effect on Acetylcholinesterase
To DTNB (5,5′-dithiobis(2-nitrobenzoic acid)), acethylthiocholine (as a substrate) and a test compound was added the rat brain homogenate and incubated.
On the technique in general: DTNB colorimetry detects thiols as they appear.

Where a name gives a salt, the structure may show the parent alone.

Consider `COc1cc2c(cc1OC)C(=O)C(C1CCN(Cc3ccccc3)CC1)C2` (stereo not drawn) [1-benzyl-4-(5,6-dimethoxy-1-indanon)-2-yl]piperidine], for which the “sigma receptor binding action” value in test [1] is “has a sigma receptor binding action”. Consider `COc1cc2c(cc1OC)C(=O)C(CC1CCN(Cc3ccccc3)CC1)C2` (stereo not drawn) [1-benzyl-4-[(5,6-dimethoxy-1-indanon)-2-yl]methylpiperidine], for which, in test [1], the “sigma receptor binding action” value is “has a sigma receptor binding action”. As a reminder, the IC50 is the concentration that inhibits the measured activity by half. As to `CCOc1cc2c(cc1OC)CC(CC1CCN(Cc3ccccc3)CC1)C2=O` (stereo not drawn) [Example 1, 1-benzyl-4-[(6-ethoxy-5-methoxy-1-indanon)-2-yl]methylpiperidine hydrochloride], the IC50 in test [2] was 5.1 nM; in test [3] it was 7.2 nM.

For `CCCOc1cc2c(cc1OC)C(=O)C(CC1CCN(Cc3ccccc3)CC1)C2` (stereo not drawn) [Example 2, 1-benzyl-4-[[5-methoxy-6-(1-propyloxy)-1-indanon]-2-yl]methylpiperidine hydrochloride], the IC50 in test [3] amounted to 2.7 nM. The same measure, in the same setting: in the case of `COc1cc2c(cc1OCC#N)CC(CC1CCN(Cc3ccccc3)CC1)C2=O` (stereo not drawn) [Example 7, 1-benzyl-4-[(5-cyanomethoxy-6-methoxy-1-indanon)-2-yl]methylpiperidine hydrochloride] it was 2.4 nM; in that of `CCOc1cc2c(cc1OCC)C(=O)C(CC1CCN(Cc3cccc(F)c3)CC1)C2` (stereo not drawn) [Example 9, 1-(3-fluorobenzyl)-4-[(5,6-diethoxy-1-indanon)-2-yl]methylpiperidine hydrochloride], 3.4 nM; in that of `CCOc1cc2c(cc1OCC)C(=O)C(CC1CCN(Cc3cccc(C)c3)CC1)C2` (stereo not drawn) [Example 15, 1-(3-methylbenzyl)-4-[(5,6-diethoxy-1-indanon)-2-yl]methylpiperidine hydrochloride], 9.1 nM. Regarding `CCOc1cc2c(cc1OC)CC(F)(CC1CCN(Cc3ccccc3)CC1)C2=O` (stereo not drawn) [Example 37, 1-benzyl-4-[(6-ethoxy-2-fluoro-5-methoxy-1-indanon)-2-yl]methylpiperidine hydrochloride], the half-inhibitory concentration (IC50) worked out at 4.3 nM in test [2] and 0.73 nM in test [3]. Take `CCOc1cc2c(cc1OC)C(=O)C(F)(CC1CCN(Cc3ccccc3)CC1)C2` (stereo not drawn) [Example 38, 1-benzyl-4-[(5-ethoxy-2-fluoro-6-methoxy-1-indanon)-2-yl]methylpiperidine hydrochloride]: the IC50 in test [3] was 0.28 nM. For the molecule `CCOc1cc2c(cc1OCC)C(=O)C(F)(CC1CCN(Cc3cccc(Cl)c3)CC1)C2` (stereo not drawn) [Example 44, 1-(3-chlorobenzyl)-4-[(5,6-diethoxy-2-fluoro-1-indanon)-2-yl]methylpiperidine hydrochloride], in test [3], the IC50 stood at 0.75 nM. `CCOc1cc2c(cc1OCC)C(=O)C(F)(CC1CCN(Cc3cccc(C)c3)CC1)C2` (stereo not drawn) [Example 47, 1-(3-methylbenzyl)-4-[(5,6-diethoxy-2-fluoro-1-indanon)-2-yl]methylpiperidine hydrochloride]: the concentration for half-maximal inhibition (IC50) in test [3] came out at 1 nM. For the molecule `CCOc1cc2c(cc1OCC)C(=O)C(F)(CC1CCN(CC3CCCCC3)CC1)C2` (stereo not drawn) [Example 50, 1-cyclohexylmethyl-4-[(5,6-diethoxy-2-fluoro-1-indanon)-2-yl]methylpiperidine hydrochloride], the IC50 in test [3] is 1.9 nM. On to `COc1cc2c(cc1OC)C(=O)C(F)(CC1CCN(CC3CCCCC3)CC1)C2.Cl` (stereo not drawn) [Example 66, 1-Cyclohexylmethyl-4-[(5,6-dimethoxy-2-fluoro-1-indanon)-2-yl]methylpiperidine hydrochloride], for which the “sigma receptor binding action” value in test [2] is “found to have a sigma receptor binding action”. As to `COc1cc2c(cc1OC)C(=O)C(Cl)(CC1CCN(Cc3ccccc3)CC1)C2.Cl` (stereo not drawn) [Example 67, 1-Benzyl-4-[(5,6-dimethoxy-2-chloro-1-indanon)-2-yl]methylpiperidine hydrochloride], the “sigma receptor binding action” value in test [2] is listed as “found to have a sigma receptor binding action”. As to `CCOc1cc2c(cc1OCC)C(=O)C(Cl)(CC1CCN(Cc3ccccc3)CC1)C2.Cl` (stereo not drawn) [Example 68, 1-Benzyl-4-[(5,6-diethoxy-2-chloro-1-indanon)-2-yl]methylpiperidine hydrochloride], in test [2], the IC50 amounted to 2.6 nM and the “sigma receptor binding action” value is listed as “found to have a sigma receptor binding action”. For `CCOc1cc2c(cc1OC)C(=O)C(Cl)(CC1CCN(Cc3ccccc3)CC1)C2.Cl` (stereo not drawn) [Example 69, 1-Benzyl-4-[(5-ethoxy-6-methoxy-2-chloro-1-indanon)-2-yl]methylpiperidine hydrochloride], in test [2], the “sigma receptor binding action” value was “found to have a sigma receptor binding action”. For the molecule `COc1cc2c(cc1OC)C(=O)C(Br)(CC1CCN(Cc3ccccc3)CC1)C2.Cl` (stereo not drawn) [Example 70, 1-Benzyl-4-[(5,6-dimethoxy-2-bromo-1-indanon)-2-yl]methylpiperidine hydrochloride], the “sigma receptor binding action” value in test [2] was “found to have a sigma receptor binding action”.

`COc1cc2c(cc1OC)C(=O)C(C)(CC1CCN(Cc3ccccc3)CC1)C2.Cl` (stereo not drawn) [Example 71, 1-Benzyl-4-[(5,6-dimethoxy-2-methyl-1-indanon)-2-yl]methylpiperidine hydrochloride]: the “sigma receptor binding action” value in test [2] was “found to have a sigma receptor binding action”.
